{"source": "the NIST ThermoML archive (doi:10.1016/j.fluid.2015.04.014)", "conditions": "Crystal; visual observation", "note": "Numbers after ± are expanded uncertainties."}
{"smiles": "CC1(C)[C@@H]2CC[C@@]1(CS(=O)(=O)O)C(=O)C2", "note": "[(1S)-(+)-10-camphorsulfonic acid]", "values": [{"measurement": "Normal melting temperature", "result": "198.00 ± 4", "unit": "°C"}]}
